This test deals with T1, Diphosphomevalonate decarboxylase (Streptococcus pneumoniae serotype 2 (strain D39 / NCTC 7466), UniProt A0A0H2ZN59).
T1 sequence (A0A0H2ZN59 whole entry): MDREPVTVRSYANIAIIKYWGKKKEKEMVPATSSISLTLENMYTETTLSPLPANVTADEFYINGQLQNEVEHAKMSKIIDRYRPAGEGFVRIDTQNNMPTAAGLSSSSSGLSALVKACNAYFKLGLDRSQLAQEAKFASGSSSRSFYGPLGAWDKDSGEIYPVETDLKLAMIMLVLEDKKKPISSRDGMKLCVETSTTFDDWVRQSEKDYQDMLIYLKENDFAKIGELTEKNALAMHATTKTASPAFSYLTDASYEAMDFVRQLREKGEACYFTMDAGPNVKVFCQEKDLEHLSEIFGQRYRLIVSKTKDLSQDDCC
The experiment in a line: diphosphomevalonate decarboxylase inhibition dose curves – biochemical, PK/LDH-coupled NADH fluorescence, hexokinase coupling counter-screen, dose response (AID 550).

Setting [1] is: inactive by the depositor's call.

Drawing on BindingDB's records for doi:10.7270/Q2N014XN (Srmlsc, 2007), this text covers IC50 for 54 molecules.

As to `Cc1cc(=O)[nH]c2ccccc12`, the IC50 is over 10000 µM. With `O=C(Nc1ccc2nc(-c3ccco3)c(-c3ccco3)nc2c1)N1CCCCCC1`, the IC50 is 46.5 µM. Still for that read-out and setting: to `CCc1cc2c(=O)c(-c3nc4ccccc4n3C)c(C)oc2c(CN2CCN(C)CC2)c1O` belongs 49.5 µM. Molecule `CN(C)CCSc1nnc(-c2ccccc2)o1` showed an IC50 of over 10000 µM. `COc1ccc2[nH]c(=O)c(CN(CC3CCCO3)C(=O)Nc3ccccc3)cc2c1` (centres undefined): the IC50 came to 80.7 µM.

In the case of `CCC(=O)N(Cc1cc2cc(OC)ccc2[nH]c1=O)c1cc(C)ccc1C`, the IC50 was found to be 88.5 µM. Same read-out and setting: to `O=C(C1CCCCC1)N1CCC(c2nc3c(nnn3Cc3ccccc3Cl)c(=O)[nH]2)CC1` belongs over 10000 µM. The same measure, in the same setting: to `O=C(O)c1c(-c2ccccc2)c2oc3ccccc3c2[nH]c1=O` belongs 17 µM. Still for that read-out and setting: with `CCc1cc2c(=O)c(-c3nc4ccccc4[nH]3)coc2cc1OC(=O)N1CCOCC1` the figure was 189 µM; with `Cn1cc(O)nc1NC(=O)C12CC3CC(CC(C3)C1)C2`, over 10000 µM; with `CCOC(=O)c1c(C)[nH]c(C(=O)COC(=O)c2ccccc2NC(=O)c2ccco2)c1C`, 62.8 µM. Consider `CCN(CC)C(=O)c1sc2[nH]c(-c3ccccn3)nc(=O)c2c1C`, for which the IC50 came to 30 µM. With `COc1cc(C2C3=C(CC(C)(C)CC3=O)N=C(C)C2C#N)cc(OC)c1O` (centres undefined), the IC50 was over 10000 µM. On the same count and under the same terms, to `Cc1cc(=O)[nH]c(NC(N)=Nc2cccc3ccccc23)n1` belongs over 10000 µM; to `CCN(CC)CCOC(=O)c1ccc(NC=C2C(=O)CC(C)(C)CC2=O)cc1`, over 10000 µM. Still for that read-out and setting: with `COc1cccc(Cn2c(=S)[nH]c3ccc(N4CCOCC4)cc3c2=O)c1` the figure was 36.2 µM; with `O=S(=O)(Nc1ccc(C(F)(F)F)cc1)c1c[nH]cn1`, over 10000 µM. The same measure, in the same setting: to `Cc1ccc(C2C3=C(CC(C)(C)CC3=O)N(CCN3CCOCC3)C3=C2C(=O)CC(C)(C)C3)cc1` belongs over 10000 µM; to `CC1=C(C(=O)OCC2CCCO2)C(c2ccncc2)C2C(=O)CCCC2=N1` (centres undefined), 26.9 µM; to `CCN(CC)c1nc2ccccc2n2cnnc12`, over 10000 µM. For `CCOC(=O)c1cc2c(cn1)[nH]c1ccccc12`, the half-inhibitory concentration (IC50) was 49.4 µM. The same measure, in the same setting: to `CC(C)/N=c1/cc2n(-c3ccc(Cl)cc3)c3ccccc3nc-2cc1Nc1ccc(Cl)cc1` belongs 2.89 µM.

For `CN(C)C(=O)Nc1cnc2ccccc2c1` [1,1-dimethyl-3-(3-quinolinyl)urea], the half-maximal inhibitory concentration (IC50) is over 10000 µM. Still for that read-out and setting: with `CC(C)c1ccc(-c2nc3c([nH]2)c(=O)n(C)c(=O)n3C)cc1` [1,3-dimethyl-8-(4-propan-2-ylphenyl)-7H-purine-2,6-dione] the figure was 21.8 µM; with `CN1CCN(CCNC(=O)c2cc3c(=O)n(C)c4ccccc4c3n2C)CC1` [1,5-dimethyl-N-[2-(4-methyl-1-piperazinyl)ethyl]-4-oxo-2-pyrrolo[3,2-c]quinolinecarboxamide], 751 µM; with `COc1cc2c(C#N)c(N3CCN(c4ccccc4OC)CC3)nc(N)c2c(N)n1` [1,8-diamino-6-methoxy-3-(4-(2-methoxyphenyl)piperazin-1-yl)-2,7-naphthyridine-4-carbonitrile], over 10000 µM. In turn, `Cc1nc2cc(NC(=O)NCc3ccco3)ccc2n1C` [1-(1,2-dimethyl-5-benzimidazolyl)-3-(2-furanylmethyl)urea] had a concentration for half-maximal inhibition (IC50) of over 10000 µM. On the same count and under the same terms, with `Nc1c(S(=O)(=O)c2cccs2)c2nc3ccccc3nc2n1Cc1ccc2c(c1)OCO2` [1-(1,3-benzodioxol-5-ylmethyl)-3-thiophen-2-ylsulfonyl-2-pyrrolo[3,2-b]quinoxalinamine] the figure was 31.9 µM; with `COc1ccc(-c2cc(C(F)(F)F)nc(SCCC(=O)N3CCN4CCCC4C3)n2)cc1` (centres undefined) [1-(3,4,6,7,8,8a-hexahydro-1H-pyrrolo[1,2-a]pyrazin-2-yl)-3-[4-(4-methoxyphenyl)-6-(trifluoromethyl)pyrimidin-2-yl]sulfanyl-propan-1-one], 376 µM.

Molecule `CC(=O)c1cccc(NC(=O)Nc2cccnc2)c1` [1-(3-acetylphenyl)-3-(3-pyridinyl)urea] gave an IC50 of over 10000 µM. Same read-out and setting: to `Cc1cc(-c2ccccc2)nc(N2CCC(C(=O)NC(C)C)CC2)n1` [1-(4-Methyl-6-phenyl-pyrimidin-2-yl)-piperidine-4-carboxylic acid isopropylamide] belongs 69.3 µM; to `CCOc1ccc(N2CC(C(=O)OC)CC2=O)cc1` (centres undefined) [1-(4-ethoxyphenyl)-5-oxo-3-pyrrolidinecarboxylic acid methyl ester], over 10000 µM. Molecule `Cc1ccccc1CN1CCN(S(=O)(=O)c2ccc(F)cc2)CC1` [1-(4-fluorophenyl)sulfonyl-4-(2-methylbenzyl)piperazine] returned an IC50 of over 10000 µM.

`Cc1nc2nc(C)c(CCC(=O)N3CCOCC3)c(C)n2n1` [1-(4-morpholinyl)-3-(2,5,7-trimethyl-[1,2,4]triazolo[1,5-a]pyrimidin-6-yl)-1-propanone] returned an IC50 of over 10000 µM. On the same count and under the same terms, to `COc1ccc2c(c1)-c1ccccc1S(=O)(=O)N2C(C)=O` [1-(5,5-diketo-9-methoxy-benzo[c][1,2]benzothiazin-6-yl)ethanone] belongs 80.2 µM. On the same count and under the same terms, to `COc1cc2c(cc1OC)CN(C(=O)CSc1nnc3scc(-c4ccccc4)n13)CC2` [1-(6,7-dimethoxy-3,4-dihydro-1H-isoquinolin-2-yl)-2-[(5-phenyl-3-thiazolo[2,3-c][1,2,4]triazolyl)thio]ethanone] belongs 584 µM; to `Cc1c(NC(=O)C2CCN(S(=O)(=O)c3ccccc3)CC2)c(=O)n(-c2ccccc2)n1C` [1-(benzenesulfonyl)-N-(1,5-dimethyl-3-oxo-2-phenyl-4-pyrazolyl)-4-piperidinecarboxamide], over 10000 µM; to `O=C1C(Cl)=C(NCC2CCCO2)C(=O)N1Cc1ccccc1` (centres undefined) [1-Benzyl-3-chloro-4-[(tetrahydro-furan-2-ylmethyl)-amino]-pyrrole-2,5-dione], over 10000 µM. Under setting [1], `CCn1nc(-c2ccccc2)nc2c(=O)n(C)c(=O)nc1-2` [1-Ethyl-6-methyl-3-phenyl-1H-pyrimido[5,4-e][1,2,4]triazine-5,7-dione] yielded a half-maximal inhibitory concentration (IC50) of 20 µM. On to `COc1cc(-c2nc3cnccc3n2C)cc(OC)c1OC` [1-Methyl-2-(3,4,5-trimethoxy-phenyl)-1H-imidazo[4,5-c]pyridine], for which the IC50 is over 10000 µM. As for `CN(C)C(=O)N1CCC(C(=O)NCc2cccs2)CC1` [1-N,1-N-dimethyl-4-N-(thiophen-2-ylmethyl)piperidine-1,4-dicarboxamide], the IC50 is over 10000 µM. On the same count and under the same terms, to `COCCn1c(C)cc(C(=O)COc2nc3ccccc3nc2C)c1C` [1-[1-(2-methoxyethyl)-2,5-dimethyl-3-pyrrolyl]-2-[(3-methyl-2-quinoxalinyl)oxy]ethanone] belongs 3000 µM. Same read-out and setting: to `COc1ccc(CCn2c(N)c(S(=O)(=O)c3cccs3)c3nc4ccccc4nc32)cc1OC` [1-[2-(3,4-dimethoxyphenyl)ethyl]-3-thiophen-2-ylsulfonyl-2-pyrrolo[3,2-b]quinoxalinamine] belongs 105 µM; to `O=C1NC(=O)C(CC(=O)N(c2ccccc2)C2(C(=O)NC3CCCC3)CCCCC2)N1` (centres undefined) [1-[2-[2,5-bis(oxidanylidene)imidazolidin-4-yl]ethanoyl-phenyl-amino]-N-cyclopentyl-cyclohexane-1-carboxamide], over 10000 µM. Still for that read-out and setting: with `Cc1ccc(OCCn2c(C)c(C=Nn3cnnc3)c3ccccc32)cc1` [1-[2-methyl-1-[2-(4-methylphenoxy)ethyl]-3-indolyl]-N-(1,2,4-triazol-4-yl)methanimine] the figure was over 10000 µM. Molecule `CCN(CC)CCCN(Cc1cc2cc3c(cc2[nH]c1=O)OCO3)C(=O)Nc1ccccc1OC` [1-[3-(diethylamino)propyl]-3-(2-methoxyphenyl)-1-[(6-oxidanylidene-5H-[1,3]dioxolo[4,5-g]quinolin-7-yl)methyl]urea] registered an IC50 of 33.7 µM. On the same count and under the same terms, with `FC(F)(F)c1cc(-c2ccco2)nc(-n2nnc3ccccc32)n1` [1-[4-(2-furanyl)-6-(trifluoromethyl)-2-pyrimidinyl]benzotriazole] the figure was 11.2 µM. In turn, `Clc1cccc(-c2ccc(C=Nn3cnnc3)o2)c1` [1-[5-(3-chlorophenyl)-2-furanyl]-N-(1,2,4-triazol-4-yl)methanimine] showed an IC50 under setting [1] of 101 µM. Turning to `CCc1c(C)c(C#N)c2nc3ccccc3n2c1Nc1c(C)n(C)n(-c2ccccc2)c1=O` [1-[(1,5-dimethyl-3-oxidanylidene-2-phenyl-pyrazol-4-yl)amino]-2-ethyl-3-methyl-pyrido[1,2-a]benzimidazole-4-carbonitrile], the IC50 is over 10000 µM. In turn, `COc1ccc(C(c2nnnn2CC2CCCO2)N2CCN(c3ccccc3)CC2)cc1` (centres undefined) [1-[(4-methoxyphenyl)-[1-(2-oxolanylmethyl)-5-tetrazolyl]methyl]-4-phenylpiperazine] gave an IC50 of over 10000 µM. As for `Cc1ccc2cc3cc(C(=O)N4CCCCCC4)oc3nc2c1` [1-azepanyl-(7-methyl-2-furo[2,3-b]quinolinyl)methanone], the IC50 was determined as 58.1 µM. Same read-out and setting: with `CCn1cc(C(=O)NCc2ccco2)c(=O)c2cc(F)c(N3CCN(C(=O)c4ccco4)CC3)cc21` [1-ethyl-6-fluoranyl-7-[4-(furan-2-ylcarbonyl)piperazin-1-yl]-N-(furan-2-ylmethyl)-4-oxidanylidene-quinoline-3-carboxamide] the figure was 16.7 µM.

`CCn1nc(-c2cccs2)nc2c(=O)n(C)c(=O)nc1-2` [1-ethyl-6-methyl-3-thiophen-2-yl-pyrimido[5,4-e][1,2,4]triazine-5,7-dione] had an IC50 under setting [1] of 4.73 µM. `COCCn1cc(C(=O)NCCCN2CCC(C)CC2)c2c3ccccc3n(C)c2c1=O` [1-keto-2-(2-methoxyethyl)-9-methyl-N-[3-(4-methylpiperidino)propyl]-beta-carboline-4-carboxamide] had a half-maximal inhibitory concentration (IC50) of 27.2 µM.
